Reference: publication PMC7486940, “Pre-symptomatic Caspase-1 inhibitor delays cognitive decline in a mouse model of Alzheimer disease and aging” (Nature Communications, 2020)

How the values were obtained:
[1] = tested on: proteolipid protein-synuclein mouse model; design: method as in PMID 27482103; conditions: proteolipid protein-synuclein mouse model of multiple systems atrophy; cited from earlier work
[2] = tested on: IDE and Nep; experiment: IDE and Nep mRNA and protein levels; type: in vivo, mouse; conditions: hippocampus
Protocol: VX-765 (Adooq Bioscience, Irvine, CA, USA) was dissolved 5 mg • ml^−1 in 20% cremophor in dH2O[60] (Sigma-Aldrich, ON, Canada) and administered IPWT and J20 mice received three injections per week of either 50 mg • kg^−1 VX-765 or 20% cremophor vehicle for 4 weeks between 2 and 3 months of age. Mice were longitudinally followed starting 4 weeks after the last injection [4-week washout (WO)], then every other month at 12- and 20-week WO (6 and 8 months of age, respectively). Intermediate 8- and 16-week WO periods were also looked at with a smaller number of mice. After each WO period, animals were randomly chosen, independent of behavioural performance, for sacrifice and assigned to either histological or biochemical analysis (Fig. 2a).
Twenty to sixty micrograms of protein or 16 μl of precipitated protein from culture medium were separated on SDS-PAGE or 4–12% NuPAGE Bis-Tris gels (Invitrogen, Carlsbad, CA, USA) with MES buffer (Invitrogen) and transferred onto PVDF membranes (Bio-Rad) according to the manufacturer’s instructions. […] Protein levels were normalized to β-actin and expressed as a percentage relative to the vehicle-treated WT group, except for APP which was compared to the vehicle-treated J20 group. […]

Compound: CCO[C@@H]1OC(=O)C[C@@H]1NC(=O)[C@@H]1CCCN1C(=O)[C@@H](NC(=O)c1ccc(N)c(Cl)c1)C(C)(C)C [VX-765, (S)-1-((S)-2-{[1-(4-amino-3-chloro-phenyl)-methanoyl]-amino}-3,3-dimethyl-butanoyl)-pyrrolidine-2-carboxylic acid ((2R,3S)-2-ethoxy-5-oxo-tetrahydro-furan-3-yl)-amide]
- alpha-synuclein toxicity [1]: protect against alpha-synuclein toxicity
- Nep mRNA and protein levels [2]: remained unchanged
- IDE mRNA or protein levels ([2]; WT vs vehicle- or VX-765-treated J20): did not change between WT and vehicle- or VX-765-treated J20 mice
